For 23 compounds, Emax and EC50 results are on record in patent US10738030B2, “Modulators of cystic fibrosis transmembrane conductance regulator” (Vertex Pharmaceuticals Incorporated, priority 2016, dated 2020).

The target in this experiment is T1, F508del (Homo sapiens, UniProt P13569, DEL508-508).
T1 construct: expressed in transfected cells
The experiment is described as follows: Membrane potential optical assay (FRET voltage-sensor dyes), identification of correction compounds. It is filed as cell-based. The following applies: NIH3T3 cells stably expressing F508del, procedures described above; for Emax: maximum efficacy, read-out: Max Efficacy; for EC50: modulation of CFTR activity. Summed up: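 Correctors were applied for 16 hrs at 37° C. to F508del-expressing mouse NIH3T3 cells in serum-free medium; 27° C. incubation served as positive control. Channel activation by forskolin (10 μM) and genistein (20 μM) with gluconate bath drove Cl⁻ efflux, tracked as membrane depolarization via voltage-sensitive FRET dyes.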

By EC50 is commonly meant the concentration at which the effect is half-maximal.

T1 sequence (P13569 with tags, fused parts or gaps DEL508-508): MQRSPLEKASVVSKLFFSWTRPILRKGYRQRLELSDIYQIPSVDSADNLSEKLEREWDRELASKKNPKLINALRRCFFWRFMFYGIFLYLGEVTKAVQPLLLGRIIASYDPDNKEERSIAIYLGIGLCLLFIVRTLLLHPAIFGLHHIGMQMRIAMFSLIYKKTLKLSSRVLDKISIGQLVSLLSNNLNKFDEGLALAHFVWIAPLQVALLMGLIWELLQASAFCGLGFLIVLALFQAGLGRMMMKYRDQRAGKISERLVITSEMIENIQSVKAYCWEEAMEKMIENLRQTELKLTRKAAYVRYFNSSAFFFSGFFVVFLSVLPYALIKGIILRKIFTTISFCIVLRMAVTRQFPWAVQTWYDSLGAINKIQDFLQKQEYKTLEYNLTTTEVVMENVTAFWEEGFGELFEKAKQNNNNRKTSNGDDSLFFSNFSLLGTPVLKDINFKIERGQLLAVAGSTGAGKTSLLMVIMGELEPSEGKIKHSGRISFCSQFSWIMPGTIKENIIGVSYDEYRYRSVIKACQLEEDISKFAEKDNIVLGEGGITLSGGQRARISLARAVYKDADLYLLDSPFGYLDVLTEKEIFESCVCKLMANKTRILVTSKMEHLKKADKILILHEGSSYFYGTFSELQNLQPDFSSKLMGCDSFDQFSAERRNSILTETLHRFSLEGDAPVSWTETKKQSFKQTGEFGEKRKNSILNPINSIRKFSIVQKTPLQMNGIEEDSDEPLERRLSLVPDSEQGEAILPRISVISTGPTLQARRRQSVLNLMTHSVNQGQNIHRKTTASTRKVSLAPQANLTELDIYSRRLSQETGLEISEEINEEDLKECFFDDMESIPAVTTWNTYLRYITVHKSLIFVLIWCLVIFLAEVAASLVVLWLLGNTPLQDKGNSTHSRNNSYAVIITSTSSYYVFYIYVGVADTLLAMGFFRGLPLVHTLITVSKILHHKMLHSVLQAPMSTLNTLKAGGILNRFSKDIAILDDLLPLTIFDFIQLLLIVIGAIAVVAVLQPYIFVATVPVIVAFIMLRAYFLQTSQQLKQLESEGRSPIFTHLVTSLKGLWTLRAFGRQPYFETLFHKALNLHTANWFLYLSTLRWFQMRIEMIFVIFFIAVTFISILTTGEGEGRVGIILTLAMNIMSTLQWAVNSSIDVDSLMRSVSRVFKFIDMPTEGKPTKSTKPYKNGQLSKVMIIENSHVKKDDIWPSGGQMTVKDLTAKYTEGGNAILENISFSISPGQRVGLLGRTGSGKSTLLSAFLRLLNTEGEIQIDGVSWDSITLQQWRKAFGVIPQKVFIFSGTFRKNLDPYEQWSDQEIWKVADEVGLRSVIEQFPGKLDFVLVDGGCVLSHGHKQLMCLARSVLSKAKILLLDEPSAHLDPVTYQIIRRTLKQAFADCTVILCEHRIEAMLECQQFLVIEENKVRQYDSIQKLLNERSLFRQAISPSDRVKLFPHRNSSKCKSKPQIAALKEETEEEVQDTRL

As to `CCCCOc1nc(-c2cc(F)cc(OCC(C)C)c2)ccc1C(=O)NS(=O)(=O)c1cccc(N)n1` [Compound 63, N-[(6-amino-2-pyridyl)sulfonyl]-2-butoxy-6-(3-fluoro-5-isobutoxy-phenyl)pyridine-3-carboxamide], the Emax was greater than 80% and the EC50 is less than 3 µM.
The matching figures for `CCCN(C)c1nc(-c2cc(F)cc(OCC(C)C)c2)ccc1C(=O)NS(=O)(=O)c1cccc(N)n1` [Compound 64, N-[(6-amino-2-pyridyl)sulfonyl]-6-(3-fluoro-5-isobutoxy-phenyl)-2-[methyl(propyl)amino]pyridine-3-carboxamide]: greater than 80% and less than 3 µM.
The matching figures for `COC[C@@H](C)Oc1nc(-c2cc(F)cc(OCC(C)C)c2)ccc1C(=O)NS(=O)(=O)c1cccc(N)n1` [Compound 65, N-[(6-amino-2-pyridyl)sulfonyl]-6-(3-fluoro-5-isobutoxy-phenyl)-2-[(1R)-2-methoxy-1-methyl-ethoxy]pyridine-3-carboxamide]: 30 to 80% and less than 3 µM.
The matching figures for `CC(C)COc1cc(F)cc(-c2ccc(C(=O)NS(=O)(=O)c3cccc(N)n3)c(N(C)CC(F)(F)F)n2)c1` [Compound 66, N-[(6-amino-2-pyridyl)sulfonyl]-6-(3-fluoro-5-isobutoxy-phenyl)-2-[methyl(2,2,2-trifluoroethyl)amino]pyridine-3-carboxamide]: greater than 80% and less than 3 µM.
For the compound `CCN(C)c1nc(-c2cc(F)cc(OCC(C)C)c2)ccc1C(=O)NS(=O)(=O)c1cccc(N)n1` [Compound 67, N-[(6-amino-2-pyridyl)sulfonyl]-2-[ethyl(methyl)amino]-6-(3-fluoro-5-isobutoxy-phenyl)pyridine-3-carboxamide], the Emax was greater than 80% and the concentration for a half-maximal effect (EC50) is less than 3 µM.
The matching figures for `CC(C)COc1cc(F)cc(-c2ccc(C(=O)NS(=O)(=O)c3cccc(N)n3)c(OC(C(C)C)C(C)(C)C)n2)c1` (stereo not shown) [Compound 68, N-[(6-amino-2-pyridyl)sulfonyl]-6-(3-fluoro-5-isobutoxy-phenyl)-2-(1-isopropyl-2,2-dimethyl-propoxy)pyridine-3-carboxamide]: 30 to 80% and less than 3 µM.
Take `CCC(CC)N(C)c1nc(-c2cc(F)cc(OCC(C)C)c2)ccc1C(=O)NS(=O)(=O)c1cccc(N)n1` [Compound 69, N-[(6-amino-2-pyridyl)sulfonyl]-2-[1-ethylpropyl(methyl)amino]-6-(3-fluoro-5-isobutoxy-phenyl)pyridine-3-carboxamide]: the Emax is greater than 80% and the EC50 was less than 3 µM.
As to `CC(C)Oc1ccc(-c2ccc(C(=O)NS(=O)(=O)c3cccc(N)n3)c(N(C)C(C)C)n2)cn1` [Compound 70, N-[(6-amino-2-pyridyl)sulfonyl]-6-(6-isopropoxy-3-pyridyl)-2-[isopropyl(methyl)amino]pyridine-3-carboxamide], the Emax fell in the range of 30 to 80% and the EC50 lay within 3 to 10 µM.
The matching figures for `CCOCC(C)Oc1nc(-c2cc(F)cc(OCC(C)C)c2)ccc1C(=O)NS(=O)(=O)c1cccc(N)n1` (stereo not shown) [Compound 71, N-[(6-amino-2-pyridyl)sulfonyl]-2-(2-ethoxy-1-methyl-ethoxy)-6-(3-fluoro-5-isobutoxy-phenyl)pyridine-3-carboxamide]: 30 to 80% and less than 3 µM.
The matching figures for `CC(C)COc1cc(F)cc(-c2ccc(C(=O)NS(=O)(=O)c3ccn[nH]3)c(NCC(C)(C)C)n2)c1` [Compound 72, 2-(2,2-dimethylpropylamino)-6-(3-fluoro-5-isobutoxy-phenyl)-N-(1H-pyrazol-5-ylsulfonyl)pyridine-3-carboxamide]: 30 to 80% and 3 to 10 µM.
The matching figures for `CC(C)COc1cc(F)cc(-c2ccc(C(=O)NS(=O)(=O)c3cccc(N)n3)c(OC(C)C(F)(F)F)n2)c1` (stereo not shown) [Compound 73, N-[(6-amino-2-pyridyl)sulfonyl]-6-(3-fluoro-5-isobutoxy-phenyl)-2-(2,2,2-trifluoro-1-methyl-ethoxy)pyridine-3-carboxamide]: 30 to 80% and less than 3 µM.
Consider `CCN(c1nc(-c2cc(F)cc(OCC(C)C)c2)ccc1C(=O)NS(=O)(=O)c1cccc(N)n1)C(C)C` [Compound 74, N-[(6-amino-2-pyridyl)sulfonyl]-2-[ethyl(isopropyl)amino]-6-(3-fluoro-5-isobutoxy-phenyl)pyridine-3-carboxamide], for which the Emax was greater than 80% and the EC50 is less than 3 µM.
The matching figures for `CC(C)COc1cc(F)cc(-c2ccc(C(=O)NS(=O)(=O)c3cccc(N)n3)c(N(C)[C@H](C)C(F)(F)F)n2)c1` [Compound 75, N-[(6-amino-2-pyridyl)sulfonyl]-6-(3-fluoro-5-isobutoxy-phenyl)-2-[methyl-[(1R)-2,2,2-trifluoro-1-methyl-ethyl]amino]pyridine-3-carboxamide]: greater than 80% and less than 3 µM.
The matching figures for `CC(C)COc1cc(F)cc(-c2ccc(C(=O)NS(=O)(=O)c3cccc(N)n3)c(C(C)C(C)C)n2)c1` (stereo not shown) [Compound 76, N-[(6-amino-2-pyridyl)sulfonyl]-2-(1,2-dimethylpropyl)-6-(3-fluoro-5-isobutoxy-phenyl)pyridine-3-carboxamide]: 30 to 80% and less than 3 µM.
The matching figures for `CCC(C)(C)CCOc1nc(-c2cc(F)cc(OCC(C)C)c2)ccc1C(=O)NS(=O)(=O)c1cccc(N)n1` [Compound 77, N-[(6-amino-2-pyridyl)sulfonyl]-2-(3,3-dimethylpentoxy)-6-(3-fluoro-5-isobutoxy-phenyl)pyridine-3-carboxamide]: 30 to 80% and less than 3 µM.
As for `CC(C)COc1cc(F)cc(-c2ccc(C(=O)NS(=O)(=O)c3ccn[nH]3)c(N(C)C(C)C)n2)c1` [Compound 79, 6-(3-fluoro-5-isobutoxy-phenyl)-2-[isopropyl(methyl)amino]-N-(1H-pyrazol-5-ylsulfonyl)pyridine-3-carboxamide], the Emax is greater than 80% and the EC50 was less than 3 µM.
The matching figures for `CC(C)COc1cc(F)cc(-c2ccc(C(=O)NS(=O)(=O)c3cccc(N)n3)c(NCCC(C)(C)O)n2)c1` [Compound 80, N-[(6-amino-2-pyridyl)sulfonyl]-6-(3-fluoro-5-isobutoxy-phenyl)-2-[(3-hydroxy-3-methyl-butyl)amino]pyridine-3-carboxamide]: 30 to 80% and greater than 10 µM.
With `CC(C)COc1cc(F)cc(-c2ccc(C(=O)NS(=O)(=O)c3cccc(N)n3)c(OCCC(F)(F)F)n2)c1` [Compound 81, N-[(6-amino-2-pyridyl)sulfonyl]-6-(3-fluoro-5-isobutoxy-phenyl)-2-(3,3,3-trifluoropropoxy)pyridine-3-carboxamide], the Emax is 30 to 80% and the concentration giving a half-maximal response (EC50) was less than 3 µM.
On to `CC(C)COc1cc(F)cc(-c2ccc(C(=O)NS(=O)(=O)c3cccc(N)n3)c(OCCCC(F)(F)F)n2)c1` [Compound 82, N-[(6-amino-2-pyridyl)sulfonyl]-6-(3-fluoro-5-isobutoxy-phenyl)-2-(4,4,4-trifluorobutoxy)pyridine-3-carboxamide], for which the Emax was 30 to 80% and the EC50 is less than 3 µM.
The matching figures for `CC(C)COc1cc(F)cc(-c2ccc(C(=O)NS(=O)(=O)c3cccc(N)n3)c(OC/C=C/C(F)(F)F)n2)c1` [Compound 83, N-[(6-amino-2-pyridyl)sulfonyl]-6-(3-fluoro-5-isobutoxy-phenyl)-2-[(E)-4,4,4-trifluorobut-2-enoxy]pyridine-3-carboxamide]: 30 to 80% and less than 3 µM.
The matching figures for `CCCCCNc1nc(-c2cc(F)cc(OCC(C)C)c2)ccc1C(=O)NS(=O)(=O)c1cccc(N)n1` [Compound 84, N-[(6-amino-2-pyridyl)sulfonyl]-6-(3-fluoro-5-isobutoxy-phenyl)-2-(pentylamino)pyridine-3-carboxamide]: greater than 80% and 3 to 10 µM.
With `CCOc1cccc2c1CN(CC(C)(C)C)C2(C)C(=O)NS(=O)(=O)c1cccc(=O)[nH]1` (stereo not shown) [Compound 85, 2-(2,2-dimethylpropyl)-4-ethoxy-1-methyl-N-[(6-oxo-1H-pyridin-2-yl)sulfonyl]isoindoline-1-carboxamide], the Emax is no more than 30% and the EC50 is greater than 10 µM.
The matching figures for `CC(C)COc1cc(F)cc(-c2ccc(C(=O)NS(=O)(=O)c3ccccc3)c(N(C)CCCC(=O)O)n2)c1` [Compound 86, 4-[[3-(benzenesulfonylcarbamoyl)-6-(3-fluoro-5-isobutoxy-phenyl)-2-pyridyl]-methyl-amino]butanoic Acid]: no more than 30% and greater than 10 µM.
